Test results as given in ChEMBL document CHEMBL1201862, “PubChem BioAssay data set” (2004).
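Exposure lasted 48 hours, with cells grown in 96-well plates and compounds tested at five concentrations. GI50 marks 50% less growth.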 Activity calls are given as the source filed them. No stated cut-off is given here; in the data, active = GI50 up to about 1.1 µM and inactive = higher.

Key:
Assay in all cases: inhibition of tumour cell growth, NCI panel, 48 h
786-0 = tested on: 786-0
A498 = tested on: A498
A549 = tested on: A549
ACHN = tested on: ACHN
BT-549 = tested on: BT-549
CAKI-1 = tested on: CAKI-1
CCRF-CEM = tested on: CCRF-CEM
EKVX = tested on: EKVX
HCC 2998 = tested on: HCC 2998
HCT-116 = tested on: HCT-116
HCT-15 = tested on: HCT-15
HL-60 = tested on: HL-60
HOP-62 = tested on: HOP-62
HOP-92 = tested on: HOP-92
HT-29 = tested on: HT-29
Hs-578T = tested on: Hs-578T
IGROV-1 = tested on: IGROV-1
K562 = tested on: K562
KM12 = tested on: KM12
LOX IMVI = tested on: LOX IMVI
M14 = tested on: M14
MCF7 = tested on: MCF7
MDA-MB-435 = tested on: MDA-MB-435
MDA-N = tested on: MDA-N
MOLT-4 = tested on: MOLT-4
Malme-3M = tested on: Malme-3M
NCI-H226 = tested on: NCI-H226
NCI-H23 = tested on: NCI-H23
NCI-H460 = tested on: NCI-H460
NCI/ADR-RES = tested on: NCI/ADR-RES
OVCAR-3 = tested on: OVCAR-3
OVCAR-4 = tested on: OVCAR-4
OVCAR-5 = tested on: OVCAR-5
OVCAR-8 = tested on: OVCAR-8
PC-3 = tested on: PC-3
RPMI-8226 = tested on: RPMI-8226
RXF 393 = tested on: RXF 393
SF-268 = tested on: SF-268
SF-295 = tested on: SF-295
SF-539 = tested on: SF-539
SK-MEL-28 = tested on: SK-MEL-28
SK-MEL-2 = tested on: SK-MEL-2
SK-OV-3 = tested on: SK-OV-3
SN12C = tested on: SN12C
SNB-19 = tested on: SNB-19
SNB-75 = tested on: SNB-75
SR = tested on: SR
SW-620 = tested on: SW-620
TK-10 = tested on: TK-10
U-251 = tested on: U-251
UACC-257 = tested on: UACC-257
UACC-62 = tested on: UACC-62
UO-31 = tested on: UO-31
COLO 205 = tested on: COLO 205
DU-145 = tested on: DU-145
MDA-MB-231 = tested on: MDA-MB-231
NCI-H522 = tested on: NCI-H522
SK-MEL-5 = tested on: SK-MEL-5
T47D = tested on: T47D

## CC1(C)O[C@H]2OC(CO[Si](C)(C)C(C)(C)C)C(N=[N+]=[N-])[C@H]2O1 (some centres undefined)
786-0
  GI50: 18.2 µM (inactive)
A498
  GI50: 25 µM (inactive)
A549
  GI50: 18.2 µM (inactive)
ACHN
  GI50: 18.7 µM (inactive)
BT-549
  GI50: 21.6 µM (inactive)
CAKI-1
  GI50: 23.8 µM (inactive)
CCRF-CEM
  GI50: 16.6 µM (inactive)
EKVX
  GI50: 22.8 µM (inactive)
HCC 2998
  GI50: 17.8 µM (inactive)
HCT-116
  GI50: 15.6 µM (inactive)
HCT-15
  GI50: 21.1 µM
HL-60
  GI50: 7.31 µM (inactive)
HOP-62
  GI50: 19.2 µM (inactive)
HOP-92
  GI50: 23.9 µM (inactive)
HT-29
  GI50: 12.5 µM (inactive)
Hs-578T
  GI50: 23.6 µM (inactive)
IGROV-1
  GI50: 3.04 µM (inactive)
K562
  GI50: 13.3 µM (inactive)
KM12
  GI50: 18.7 µM (inactive)
LOX IMVI
  GI50: 21 µM (inactive)
M14
  GI50: 19.2 µM (inactive)
MCF7
  GI50: 20.7 µM (inactive)
MDA-MB-435
  GI50: 25.8 µM (inactive)
MDA-N
  GI50: 23.7 µM (inactive)
MOLT-4
  GI50: 17 µM (inactive)
Malme-3M
  GI50: 17.1 µM (inactive)
NCI-H226
  GI50: 20 µM (inactive)
NCI-H23
  GI50: 19.2 µM (inactive)
NCI-H460
  GI50: 26.2 µM (inactive)
NCI/ADR-RES
  GI50: 18.1 µM (inactive)
OVCAR-3
  GI50: 22.7 µM (inactive)
OVCAR-4
  GI50: 26.3 µM (inactive)
OVCAR-5
  GI50: 20.5 µM (inactive)
OVCAR-8
  GI50: 20.1 µM (inactive)
PC-3
  GI50: 20.3 µM (inactive)
RPMI-8226
  GI50: 13 µM (inactive)
RXF 393
  GI50: 16.6 µM (inactive)
SF-268
  GI50: 20.7 µM (inactive)
SF-295
  GI50: 11.8 µM (inactive)
SF-539
  GI50: 20 µM (inactive)
SK-MEL-28
  GI50: 24.7 µM (inactive)
SK-MEL-2
  GI50: 17.2 µM (inactive)
SK-OV-3
  GI50: 14 µM (inactive)
SN12C
  GI50: 20 µM (inactive)
SNB-19
  GI50: 17.7 µM (inactive)
SNB-75
  GI50: 28.4 µM (inactive)
SR
  GI50: 12.4 µM (inactive)
SW-620
  GI50: 21.5 µM (inactive)
TK-10
  GI50: 19.1 µM (inactive)
U-251
  GI50: 20.6 µM (inactive)
UACC-257
  GI50: 18 µM (inactive)
UACC-62
  GI50: 19.1 µM (inactive)
UO-31
  GI50: 17.2 µM (inactive)

## COc1ccc2c(C)cc(C)nc2n1
786-0
  GI50: > 100 µM (inactive)
A498
  GI50: > 100 µM (inactive)
A549
  GI50: > 100 µM (inactive)
ACHN
  GI50: > 100 µM (inactive)
BT-549
  GI50: > 100 µM (inactive)
CAKI-1
  GI50: > 100 µM (inactive)
CCRF-CEM
  GI50: > 100 µM (inactive)
COLO 205
  GI50: > 100 µM (inactive)
DU-145
  GI50: > 100 µM (inactive)
EKVX
  GI50: > 100 µM (inactive)
HCC 2998
  GI50: > 100 µM (inactive)
HCT-116
  GI50: > 100 µM (inactive)
HCT-15
  GI50: > 100 µM
HL-60
  GI50: > 100 µM (inactive)
HOP-62
  GI50: > 100 µM (inactive)
HOP-92
  GI50: > 100 µM (inactive)
HT-29
  GI50: > 100 µM (inactive)
IGROV-1
  GI50: > 100 µM (inactive)
K562
  GI50: > 100 µM (inactive)
KM12
  GI50: > 100 µM (inactive)
LOX IMVI
  GI50: > 100 µM (inactive)
M14
  GI50: > 100 µM (inactive)
MCF7
  GI50: > 100 µM (inactive)
MDA-MB-231
  GI50: > 100 µM (inactive)
MDA-MB-435
  GI50: > 100 µM (inactive)
MDA-N
  GI50: > 100 µM (inactive)
MOLT-4
  GI50: > 100 µM (inactive)
Malme-3M
  GI50: > 100 µM (inactive)
NCI-H23
  GI50: > 100 µM (inactive)
NCI-H460
  GI50: > 100 µM (inactive)
NCI-H522
  GI50: > 100 µM (inactive)
NCI/ADR-RES
  GI50: > 100 µM (inactive)
OVCAR-3
  GI50: > 100 µM (inactive)
OVCAR-4
  GI50: > 100 µM (inactive)
OVCAR-5
  GI50: > 100 µM (inactive)
OVCAR-8
  GI50: > 100 µM (inactive)
PC-3
  GI50: > 100 µM (inactive)
RPMI-8226
  GI50: > 100 µM (inactive)
RXF 393
  GI50: > 100 µM (inactive)
SF-295
  GI50: > 100 µM (inactive)
SK-MEL-28
  GI50: > 100 µM (inactive)
SK-MEL-2
  GI50: > 100 µM (inactive)
SK-MEL-5
  GI50: > 100 µM (inactive)
SK-OV-3
  GI50: > 100 µM (inactive)
SN12C
  GI50: > 100 µM (inactive)
SNB-19
  GI50: > 100 µM (inactive)
SNB-75
  GI50: > 100 µM (inactive)
SR
  GI50: > 100 µM (inactive)
SW-620
  GI50: > 100 µM (inactive)
T47D
  GI50: > 100 µM (inactive)
TK-10
  GI50: > 100 µM (inactive)
U-251
  GI50: > 100 µM (inactive)
UACC-257
  GI50: > 100 µM (inactive)
UACC-62
  GI50: > 100 µM (inactive)
UO-31
  GI50: > 100 µM (inactive)

## CC1(C)C[C@@H]2C1CCC1(C)CC2(O)CC[C@H]1O (some centres undefined)
786-0
  GI50: > 100 µM (inactive)
A549
  GI50: > 100 µM (inactive)
ACHN
  GI50: > 100 µM (inactive)
BT-549
  GI50: > 100 µM (inactive)
CAKI-1
  GI50: > 100 µM (inactive)
CCRF-CEM
  GI50: > 100 µM (inactive)
COLO 205
  GI50: > 100 µM (inactive)
EKVX
  GI50: > 100 µM (inactive)
HCT-15
  GI50: > 100 µM
HL-60
  GI50: > 100 µM (inactive)
HOP-62
  GI50: > 100 µM (inactive)
HOP-92
  GI50: > 100 µM (inactive)
HT-29
  GI50: > 100 µM (inactive)
Hs-578T
  GI50: > 100 µM (inactive)
IGROV-1
  GI50: > 100 µM (inactive)
K562
  GI50: > 100 µM (inactive)
KM12
  GI50: > 100 µM (inactive)
LOX IMVI
  GI50: > 100 µM (inactive)
M14
  GI50: > 100 µM (inactive)
MCF7
  GI50: > 100 µM (inactive)
MDA-MB-435
  GI50: > 100 µM (inactive)
MOLT-4
  GI50: > 100 µM (inactive)
Malme-3M
  GI50: > 100 µM (inactive)
NCI-H226
  GI50: > 100 µM (inactive)
NCI-H23
  GI50: > 100 µM (inactive)
NCI-H460
  GI50: > 100 µM (inactive)
NCI-H522
  GI50: > 100 µM (inactive)
NCI/ADR-RES
  GI50: > 100 µM (inactive)
OVCAR-3
  GI50: > 100 µM (inactive)
OVCAR-4
  GI50: > 100 µM (inactive)
OVCAR-5
  GI50: > 100 µM (inactive)
OVCAR-8
  GI50: > 100 µM (inactive)
PC-3
  GI50: > 100 µM (inactive)
RPMI-8226
  GI50: > 100 µM (inactive)
SF-268
  GI50: > 100 µM (inactive)
SF-295
  GI50: > 100 µM (inactive)
SK-MEL-28
  GI50: > 100 µM (inactive)
SK-MEL-2
  GI50: > 100 µM (inactive)
SK-MEL-5
  GI50: > 100 µM (inactive)
SK-OV-3
  GI50: > 100 µM (inactive)
SN12C
  GI50: > 100 µM (inactive)
SNB-19
  GI50: > 100 µM (inactive)
SNB-75
  GI50: > 100 µM (inactive)
SR
  GI50: > 100 µM (inactive)
SW-620
  GI50: > 100 µM (inactive)
T47D
  GI50: > 100 µM (inactive)
TK-10
  GI50: > 100 µM (inactive)
U-251
  GI50: > 100 µM (inactive)
UACC-257
  GI50: > 100 µM (inactive)
UACC-62
  GI50: > 100 µM (inactive)
UO-31
  GI50: > 100 µM (inactive)
